# Data as given in patent US20210023074A1, “TREATMENT OF DEMYELINATING DISEASES” (Victoria Link Ltd., priority 2018, published 2021).
# Entries after “also recorded” stand apart in the source; their conditions may differ.
# Test system: experimental autoimmune encephalomyelitis (EAE) mice
# Test: EAE model of MS, disease score, treatment from day of disease onset (score >1)
# Assay type: in vivo, C57BL/6 mice
# Procedure: Experimental detail: EAE was induced in female C57BL/6 mice as described in Example 1. On the day of disease onset (score >1, dotted line), mice were started on daily treatment with vehicle only (Veh) or nalmefene (NaIM) at 0.1, 0.03, 0.01, or 0.003 mg/kg by i.p. injection. […]
# (§1) Experimental detail: EAE was induced in female C57BL/6 mice as described in Example 1. On the day of disease onset (score >1, dotted line), mice were treated with vehicle only (daily), nalmefene (0.01 mg/kg by i.p. injection daily), the KOR antagonist norBNI (10 mg/kg by i.p. injection weekly), both nalmefene and norBNI, or the MOR antagonist BFNA (10 mg/kg by i.p. injection weekly).
# as §1, with “weekly). The peak disease score during the first EAE episode was recorded, and mice were considered recovered if they received a score <0.5 by day 23 post treatment initiation.” for “weekly).”
# Experimental detail: EAE was induced in female C57BL/6 mice as described in Example 1.
smiles,measurement,setting,value
COC(=O)/C=C/C(=O)N[C@@H]1CC[C@@]2(O)[C@H]3Cc4ccc(O)c5c4[C@@]2(CCN3CC2CC2)[C@H]1O5 [BFNA],recovery from paralysis (disease score),10 mg/kg i.p. weekly from disease onset,does not enable recovery
Oc1ccc2c3c1O[C@H]1c4[nH]c5c(c4C[C@@]4(O)[C@@H](C2)N(CC2CC2)CC[C@]314)C[C@@]1(O)[C@H]2Cc3ccc(O)c4c3[C@@]1(CCN2CC1CC1)[C@H]5O4 [norBNI],effect on nalmefene-mediated recovery from paralysis,norBNI 10 mg/kg i.p. weekly with nalmefene 0.01 mg/kg i.p. daily,abolishes the ability of nalmefene to enable full recovery from paralysis; also recorded: abolishes the ability of nalmefene to enable and sustain recovery from paralysis
CN1CCC[C@@H]1CCO[C@](C)(c1ccccc1)c1ccc(Cl)cc1 [clemastine fumerate],number of days in recovery (sustained recovery),"nalmefene 0.01 mg/kg i.p. daily, clemastine fumerate 10 mg/kg i.p.",recovery is not sustained
